Experimental data as given in publication PMC10190849, “Rationally designed modular drug delivery platform based on intracellular peptide self‐assembly” (Exploration, 2021).
No end group written: not given here. *: point of attachment. FITC = O=C1OC2(c3ccc(O)cc3Oc3cc(O)ccc32)c2ccc(NC(=S)*)cc21

Key:
[1] = ThT (Thioflavin T) assay, critical aggregation/assembly concentration and dispersibility; assay type: physicochemical; settings: dose dependent assembling profile after incubation with ThT, Figure 3A
Method: For intracellular self-assembly, the rapid transformation from dispersed state to aggregate state in desired site is required. In other words, the molecules need to be stable monomeric states at other locations and present self-assembled states at the required locations. Therefore, location-specific self-assembly characteristics are the decisive factors for the success of molecular design. […] Then, different modification on four domains were carried out to evaluate its dispersity and self-assembly properties. We carried out ThT (Thioflavin T) analytic assay to evaluate whether those predesigned molecules presented relatively dispersed state. ThT is a sensitive probe to the lamellar β-sheet structure. When exposed to the lamellar β-sheet structure, ThT fluorescence was enhanced due to inserting into the lamellar structure.^[ [17] ^] […] In order to validate our hypophysis and quantitively determine the solubility of those molecules, we calculated the critical assembly concentration (CAC) of those molecules based on the ThT analysis. […] However, other molecules with R4 domain modifications all presented a higher CAC with ≥400 μM. […] ThT assay: the ThT assay was utilized to calculate the critical assembling concentration. […] Next, the fluorescence of ThT was measured with the excitation wavelength with 450 nm. Finally, the fluorescence intensity was recorded and normalized.

[2] = TEM imaging of assembled morphology and diameters; assay type: physicochemical; settings: result in words
Description: To further confirm our speculation, we observe the assembled morphology of these molecules under its CAC concentrations. […] As those results indicated, the modification position of fluorescence molecules largely influenced the dispersity of designed molecules. […] As a threshold, the %SASA value around 75% distinguishes between assembly and soluble states. Thus, the optimal choice for modification position is decisive in %SASA regulation for successful molecular design.
In order to achieve a highly ordered superstructure in vivo, it is necessary to transfer the precursor with higher CAC content to the monomer with lower CAC content at the desired position under the trigger of some chemical reactions. In this work, the pre‐designed molecules trigger the conversion of precursors to monomers transformation through enzyme‐directed hydrolysis, and the substrate (DEVD) was cleaved by caspase 3/7. Due to the increased hydrophobicity and conformational changes, the resultant product further self‐assembled into the required superstructure. The previous study in this work confirmed five molecules with higher dispersity (Pβ‐R4C, Pα‐R4C, Pβ‐R4F, Pβ‐R4P, Pβ‐R4C‐D). Here, we studied the self‐assembly properties of […] related residues of these highly soluble molecules (R‐R4C, R‐R4F, R‐R4P, R‐R4C‐D).^[ [21] ^] […]

[3] = system: XIAP positive cell lines (H460, 786-O, EJ, RT112); experiment: CLSM imaging of cells coincubated with MDS molecules, XIAP positive cell lines; assay type: cell-based; settings: 50 μM, 37 °C, 1 h, PBS washing
Description: (§1) Drug delivery efficacy is one of the decisive factors for evaluating the drug delivery systems.
In order to evaluate the drug delivery efficacy, we directly observed the Py fluorescence by CLSM imaging. […] In addition, we performed the cell section analysis and directly observed the morphology of assemblies intracellularly (Figure 8D). The intracellular formed nanofibers confirmed the controllable in situ assembly of MDS. All those results verified that the drug delivery system was feasible for highly efficient drug delivery.
Cell culturing and CLSM imaging: H460, 786-O, L929 cell lines and EJ, RT112 cell lines were cultured in PRMI-1640 and DMEM respectively with 10% (v: v) fetal bovine serum, 1% penicillin–streptomycin in an incubator (Thermo Scientific) at 37 °C with 5% CO2 and 95% relative humidity. For observing the selectivity of MDS by CLSM imaging, all the cell lines were seeded with 1 x 10^5 cells per well, and cultured for 24 h, the cells were incubated with 50 μM Pβ-R4C and Pβ-R4F respectively at 37 °C for 1 h and followed by PBS washing. Subsequently, the cells were stained with Hoechst 33342 (1 mg ml^-1) at 37 °C for 10 min. Finally, the cells were washed by PBS twice and immediately observed under confocal laser scanning microscopy. […]

[4] = system: XIAP negative cell line L929; experiment: CLSM imaging of cells coincubated with MDS molecules, XIAP negative cell line; assay type: cell-based; settings: 50 μM, 37 °C, 1 h, PBS washing
Method: as §1
Cell culturing and CLSM imaging: H460, 786-O, L929 cell lines and EJ, RT112 cell lines were cultured in PRMI-1640 and DMEM respectively with 10% (v: v) fetal bovine serum, 1% penicillin–streptomycin in an incubator (Thermo Scientific) at 37 °C with 5% CO2 and 95% relative humidity. For observing the selectivity of MDS by CLSM imaging, all the cell lines were seeded with 1 x 10^5 cells per well, and cultured for 24 h, the cells were incubated with 50 μM Pβ-R4C and Pβ-R4F respectively at 37 °C for 1 h and followed by PBS washing. Subsequently, the cells were stained with Hoechst 33342 (1 mg ml^-1) at 37 °C for 10 min. Finally, the cells were washed by PBS twice and immediately observed under confocal laser scanning microscopy. For observing the selective drug accumulation by CLSM imaging, the H460 cell and L929 cells were seeded with 1 x 10^5 cells per well, and cultured for 24 h, then cells were incubated with 50 μM Pβ-R4C-D for 1 h, followed by PBS washing and observed by CLSM.

Row | Substance | molecular concentration at which ThT fluorescence obviously increased [1] | assembled morphology (TEM) [2] | fluorescent signal in cells (CLSM) [3] | fluorescent signal in cells (CLSM) [4]
1 | AVPIAQKDEVDGC(Cy)KLVFFAEG [Pβ-R2C, Pβ with GC on R2 domain conjugated with Cy] | 200 µM | nanofibrous structures | – | –
2 | AVPIAQKDEVDKLVFFAEC(Cy)G [Pβ-R4C, Pβ with fluorescent molecule Cy linked in R4 domain] | – | – | strong Cy and FITC fluorescent signal | No obvious fluorescent signal
3 | AVPIAQKDEVDKLVFFAEC(FITC)G [Pβ-R4F, Pβ with FITC in R4 domain] | – | – | strong Cy and FITC fluorescent signal | No obvious fluorescent signal
